Data reported in the METLIN SMRT retention time set (Domingo-Almenara et al. 2019).

Assay: gradient 5% acetonitrile 3 min, to 50% in 2 min, to 85% in 15 min, held 3 min, 100 µL/min
Details: column: Zorbax Extend-C18 2.1 x 50 mm; eluents: water / acetonitrile, 0.1% formic acid
Method in brief: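 In both positive and negative ionization mode, a quadrupole time-of-flight mass spectrometer coupled to HPLC analyzed pure standards run in mixtures of ~100 molecules. The Zorbax Extend-C18 column (2.1 × 50 mm, 1.8 μm) was operated at 100 μL/min with water and acetonitrile, each containing 0.1% formic acid. The dead volume was 40 μL and the dwell volume 900 μL. Retention time came from adduct peaks that were computationally picked and individually inspected by hand.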

SMILES	RP-LC retention time [s]
COCC(=O)N1CCCc2ccc(NC(=O)c3cc(C)oc3C)cc21	725
C=CCn1c(C)c(CC(=O)NCCOC)c(=O)n2nc(-c3ccc(C)cc3)nc12	732
Fc1cccc(Cn2cc(-c3noc(-c4ccc5cc[nH]c5c4)n3)nn2)c1	996
CSc1ccc(CNC(=O)c2cn3ccc(C)cc3n2)cc1	699
CCc1ccc(CN2C(=O)CN(S(C)(=O)=O)CC2(C)C(=O)NC2CCCCCCC2)cc1 (stereo unspecified)	1040
Cc1ccc(C2CCCN2C(=O)Cc2ccsc2)cc1 (stereo unspecified)	632
Cc1ccccc1NC(=O)C1CCN(S(C)(=O)=O)c2ccccc2O1 (stereo unspecified)	867
CC(=O)N1CCc2cc(-c3ccc(C(=O)NCCN4CCCCC4C)cc3)ccc21 (stereo unspecified)	622
O=C(Cn1ccc2c(SCc3ccc(F)cc3)nccc21)N1CCN(c2ccccn2)CC1	595
COC(=O)C1=CN(c2ccc(Cl)cc2)c2cc(F)ccc2S1(=O)=O	919
CC1(C(=O)NCc2ccccc2)CCCN(C(=O)Nc2cccc(Cl)c2)C1 (stereo unspecified)	966
CN(CC(=O)N1CCCCC1)S(=O)(=O)c1ccc2c(c1)CCCC(=O)N2	676
Cc1ccc(Nc2c(-c3ccccc3)nc3ncccn23)c(C)c1	786
O=C(CC1COc2ccccc2NC1=O)Nc1ccc2c(c1)OCCO2 (stereo unspecified)	688
O=C(Nc1ccc(F)cc1)c1ccc(Cl)s1	908
CCCCN(C)c1nc(-c2ccc(Cl)cc2Cl)nc2ccccc12	893
Cc1ccc(-n2nc(C)c3c(=O)n(CC(=O)N4CCN(c5cc(Cl)ccc5C)CC4)ccc32)cc1	1100
CC(=O)Nc1onc(C)c1-c1ccc(C)c(S(=O)(=O)N2CCN(C3CCCCC3)CC2)c1	629
CCCNC(=O)N1CC(Oc2ccc(-c3nc(C)no3)cc2)C1	745
COc1cccc(-c2ccc3nc(N4CCC(C(=O)NC(C)C)CC4)sc3n2)c1	895

SMILES	RP-LC retention time [s]
CCCCNc1ncc(C(=O)O)c(-c2ccncc2)n1	612
COc1ccc(/C=C/c2nn3c(CCc4ccccc4)nnc3s2)cc1	910
O=C(c1cc(-c2ccco2)[nH]n1)N1CCN(c2ncccn2)CC1	640
O=C(Nc1ccc(Cl)c([N+](=O)[O-])c1)Nc1nc2ccccc2s1	1050
Cc1cc(C)c(NC(=O)Cn2nc3c4cccc(C)c4ncn3c2=O)c(C)c1	679
CCn1cc(-c2ccc(Cl)cc2)cc1C(=O)N(C)C	957
Cc1cc(C)n(CCNC(=O)c2ccsc2)n1	593
COc1ccc(NC(=O)NCCCn2c(C(F)(F)F)nc3cccnc32)c(OC)c1	708
Cc1nc(-c2cccc(-c3noc(COc4ccc(Cl)cc4)n3)c2)cs1	1280
CCOc1cccc(CN2CCc3nc(N4CCN(c5ccccc5F)CC4)ncc3C2)c1	852
COc1cccc(-n2c(N3CCCC(C(=O)NCCC(C)C)C3)nc3ccsc3c2=O)c1 (stereo unspecified)	872
Cc1c(Cc2ccccc2)[n+](=O)c2ccccc2n1[O-]	1020
Cn1nccc1-c1cccc(-c2noc(Cc3ccc(F)cc3)n2)c1	1040
CCc1cc(=O)n(CC(=O)NCc2ccc(F)cc2F)c(N2CCOCC2)n1	720
CCCN(C)S(=O)(=O)c1cc(-c2nc(C)cs2)n(CC(=O)N2CCCCC2)c1	967
CC(C)Cn1c(-c2cccc(C(=O)NCC3CCCO3)c2)nc2cccnc21 (stereo unspecified)	699
O=C(CCn1cnc2ccccc2c1=O)N1CCN(CCn2cccn2)CC1	539
CCOc1ccc(NC(=O)CSc2nc(N3CCCCC3)nc3ccccc23)cc1	745
COC(=O)c1ccc(NC(=O)CN2CCC(c3nc(-c4cccs4)no3)CC2)cc1	621
O=C(Nc1ccc(F)c(F)c1)c1c(O)c2cccnc2n(-c2ccccc2)c1=O	916

SMILES	RP-LC retention time [s]
CC(C)CCNC(=O)c1cc2n(n1)CC(C)(C(=O)NCc1ccccc1)N(C)C2=O (stereo unspecified)	758
Cc1cccc(CC(=O)N2C[C@@H]3C[C@H]2C[C@@H]3NS(=O)(=O)c2cccs2)c1	815
O=C(NCCOc1ccc(F)cc1)C(c1ccccc1)n1cccc1 (stereo unspecified)	927
CCn1cc(S(=O)(=O)Nc2cccc(OC)c2)c2cccnc21	794
COc1ccc(NC(=O)N2[C@H]3CC[C@@H]2c2cncnc2C3)c(OC)c1	639
CCNC(=O)C1CCN(c2nc3ccc(-c4ccccc4F)nc3s2)CC1	848
CSc1cccc(NC(=O)N(C)CC2CCOCC2)c1	743
Cc1ccn2cc(-c3ccc(NC(=O)c4cccs4)cc3)nc2n1	636
CCOCCCN1C(=O)CN(C2CCCCCC2)C(=O)C1c1ccc(OC)cc1 (stereo unspecified)	902
CC(=O)Nc1ccc(C2(C(=O)O)CCC2)cc1	637
Cc1ccccc1CC(=O)N1CCC(n2c(=O)n(C)c3cncnc32)C1 (stereo unspecified)	652
COc1ccc2c(c1)C1(CCN(S(=O)(=O)c3ccc(F)c(F)c3)C1)C(=O)N2 (stereo unspecified)	837
CSc1ncccc1C(=O)N1CCCn2nc(-c3ccncc3)cc2C1	586
O=C(Cn1cc(-c2nnc(-c3ccco3)o2)c2ccccc21)N1CCCC1	724
CC(C)c1nc2c(NC(=O)C3CC3)cccn2n1	733
COc1ccc(CNC(=O)NC2CCN(c3ccc(F)cc3)C2=O)cc1 (stereo unspecified)	697
CCCNC(=O)c1ccc(-c2ccnc(N3CCCCC3)n2)cc1	905
CCc1ccccc1NC(=O)Cn1c(NCCCc2ccccc2)nc(C)cc1=O	857

More lines, now with the values ahead:

RP-LC retention time [s]	SMILES
781	O=C(NC1CCCC1)C1CCCN(c2ccc3cc(S(=O)(=O)N4CCCCC4)ccc3n2)C1 (stereo unspecified)
1050	COc1cccc(NC(=O)N2CCCC2c2nc(-c3cccc(Cl)c3)no2)c1 (stereo unspecified)
1060	Cn1c(C(=O)NCc2ccccc2)cc2sc(Cl)cc21
572	CCOC(=O)C1=C(N)Oc2cc(C)n(CCN(C)C)c(=O)c2C1c1ccccc1 (stereo unspecified)
782	CCc1noc2nc(C)n(CC(=O)NCc3ccccc3C)c(=O)c12
904	O=C(c1cnn2cc(Br)cnc12)N1CCCC1c1cccc(F)c1 (stereo unspecified)
767	Cc1ccc(N(C)C(=O)n2cnc3ccccc32)cc1
650	O=C(NCc1ccc2c(c1)OCO2)c1cn2c(n1)CSCC2
1010	Cc1ccccc1-c1nnc(COc2ccc(NC(=O)c3sccc3C)cc2)o1
621	Cc1noc(C)c1COc1ccccc1CN1CCC2(CCC2O)CC1 (stereo unspecified)
771	COCCN1C(=O)CCc2cc(NS(=O)(=O)c3ccc(Cl)cc3)ccc21
652	Cc1ccc(Nc2ccc(N)cc2S(=O)(=O)O)cc1
776	COCCn1cc(CCNC(=O)Nc2cc(C)cc(C)c2)c2cccnc21
921	CC(C(=O)N1CCN(c2cc(-c3ccc(Cl)cc3)[nH]n2)CC1)c1ccccc1 (stereo unspecified)
661	COc1ccc(C2(C(=O)N3CCC(n4c(C)cnc4-c4ccccc4)C3)CC2)cc1 (stereo unspecified)
764	Cc1cc2nn(CC(=O)NC3CCCCC3)c(=O)n2c(-c2ccccc2)n1
930	COc1ccc(-c2cc(C(=O)Nc3ccc(F)cc3)nn2C2CCS(=O)(=O)C2)cc1 (stereo unspecified)

RP-LC retention time [s]	SMILES
872	COc1ccc(-c2ccnc3nc(-c4ccccc4OC)nn23)c(F)c1
822	O=C(CCC1CCCN(S(=O)(=O)c2cccc(F)c2)C1)NCC1CC1 (stereo unspecified)
758	Cc1ccc(N2C(=O)CN(S(C)(=O)=O)CC2(C)C(=O)NCc2ccccc2)cc1C (stereo unspecified)
1120	CCSc1nc2ccc(NS(=O)(=O)c3cc(C)cc(C)c3)cc2s1
600	COc1ccc(N2CC(C(=O)N3CCC(C(=O)N4CCC(C(N)=O)CC4)CC3)CC2=O)cc1 (stereo unspecified)
610	CCCc1cc(N2CCN(C(=O)c3ccc(C#N)cc3)CC2)nc2nnc(C)n12
1110	CCCN1C(=O)c2cc(S(=O)(=O)N3CCCCC3)ccc2Oc2cccnc21
638	CCN(CC)c1cc(CNC(=O)Nc2cc(Cl)c(OC)cc2OC)ccn1
1190	O=C(C1CCN(S(=O)(=O)c2ccc(-c3noc(CCC4CCCC4)n3)cc2)CC1)N1CCCC1
817	COc1cccc(NC(=O)C2CC(=O)N(c3ccc4c(c3)CCN4C(=O)C3CCC3)C2)c1 (stereo unspecified)
974	COC(=O)c1cn(CC(=O)N2CCc3ccccc32)c2ccccc12
866	COc1ccc(N2CC(c3nc(-c4ccc(C)cc4)no3)CC2=O)cc1OC (stereo unspecified)
722	Cc1ccc(NC(=O)N(C)CC2CCOC2)cc1F (stereo unspecified)
856	COc1ccccc1N1CCN(C(=O)c2cn(-c3cc(N4CCCCC4)ncn3)cn2)CC1
1140	CCOc1ccc(CCNC(=O)c2sc(-c3cccn3CC)nc2C)cc1OCC
761	CCC(CO)Nc1ncnc2c1cnn2-c1ccc(C)c(Cl)c1 (stereo unspecified)
